# Assay results: US20100087516A1, “ANTIBACTERIAL MACROLACTIN A THAT BACILLUS POLYFERMENTICUS KJS-2 PRODUCED IN” (priority 2007, published 2010)
# Where two headings read alike, the source gives them in different places.
# How the values were obtained:
# [1] = test system: 13 MRSA strains, clinically isolated; test: Minimal inhibitory concentration (MIC>90) in MH II medium; type: cell-based, methicillin-resistant Staphylococcus aureus
# Procedure: (§1) The MIC (minimal inhibitory concentration) against VRE and MRSA was measured to test antibiotic activity of Macrolactin A produced by Bacillus polyfermenticus KJS-2, which is the strain of the present invention, against the two strains. The strains used for the experiment were 11 VRE strains and 13 MRSA strains, which were clinically isolated. Each strain used for the experiment was cultured in MH II medium at 200 rpm for 6 hours at 37° C., the absorbance of the medium measured at OD600nm using a UV detector, and then 1 ml aliquot of the medium was spread over MH II agar medium and incubated for 16 hours at 37° C. The number of colonies formed on the agar medium after 16 hours of incubation was counted. Each strain used for experiment was cultured in MH II medium at 200 rpm for 6 hours at 37° C., and the absorbance of the medium was measured at OD600nm using a UV detector. The number of cells were calculated based on the ratio of the number of colonies to the absorbance of the medium, and measured by the above process. Each culture medium was diluted to the final cell concentration of 0.25*10^7 cfu/ml and Macrolactin A was dissolved in the solvent DMSO, while ampicillin, teycoplanin, vancomycin and methillin were dissolved in water. To measure the MIC of Macrolactin A or of the four antibiotics, the mixture of the materials listed in Table 5 and Macrolactin A or the mixture of the materials listed in Table 6 and each of the four antibiotics, respectively in a 500 μl eppendorff tub, was incubated at 200 rpm for 16 hours at 37° C., and then absorbance was measured by a UV/Visible Light detector at 600 nm using a Fluorescence Multi-Detection Reader.
# Escherichia coli = test: Antibiotic activity test of HPLC fractions of the culture medium; type: cell-based
# Procedure: (§2) In order to purify the antibiotic substance produced by strain Bacillus polyfermenticus KJS-2, the seed culture of the strain was diluted into 3 L of TSB medium (TSB agar: Tryptone 17 g, Soytone 3 g, Dextrose 2.5 g, NaCl 5 g, Dipotassium Phosphate 2.5 g, pH 6.8 to 72 to a final concentration of 4% and was cultured for 2.5 days (30° C., 200 rpm, 1 vvm, pH6.8). The culture medium was extracted with […] and analyzed by HPLC under the conditions using a solvent of Step 2 of Example 1, and each peak was fractionated as in FIG. 4. Each fraction was tested for antibiotic activity against Escherichia coli, Bacillus subtilis 168 and Vancomycin-resistant Enterococci. […] FIG. 5 below is the analysis of fraction 1 of FIG. 4 by LC/Mass under the same conditions of Step 2 of Example 1, and the purification was to a purity of 94.63%.
# Bacillus subtilis 168 = test: as above; type: cell-based
# Procedure: as §2
# [2] = test system: Vancomycin-resistant Enterococci; test: as above; type: cell-based
# Procedure: as §2
# [3] = test system: a variety of microorganisms and fungi; test: Spectrum of antibiotic activity (general statement); type: cell-based
# [4] = test system: methicillin-resistant Staphylococcus aureu (MRSA); details: cited from earlier work
# Streptococcus parauberis = test: Bioassay of Macrolactin A on TSB agar medium; type: cell-based; details: 10 μl of solution in 50% acetone (2.5 mg/ml)
# Procedure: (§3) The strains used for the experiment were Saccharomyces cerevisiae, Vibrio vulnificus, Micrococcus luteus and Streptococcus parauberis. Each strain, except Vibrio vulnificus, was inoculated and cultured in TSB medium at 200 rpm for 16 hours at 37° C., and then a 0.5 ml (approximately 28*10^9 cfu/ml) aliquot of the culture medium was spread over TSB agar medium. Vibrio vulnificus, was inoculated and cultured in TSB medium at 200 rpm for 16 hours at 25° C., which is its optimum growth conation, and then the amount of the culture medium was spread over the agar medium. The solvent required for the bioassay is a solvent, which can dissolve Macrolactin A, that has no toxicity against the strains used for the experiment.
# Micrococcus luteus = test: Bioassay of Macrolactin A on TSB agar medium; type: cell-based; details: 10 μl of solution in 50% acetone (2.5 mg/ml)
# Procedure: as §3
# Saccharomyces cerevisiae = test: Bioassay of Macrolactin A on TSB agar medium; type: cell-based; details: 10 μl of solution in 50% acetone (2.5 mg/ml)
# Procedure: as §3
# Vibrio vulnificus = test: Bioassay of Macrolactin A on TSB agar medium; type: cell-based; details: 10 μl of solution in 50% acetone (2.5 mg/ml)
# Procedure: as §3
# [5] = test system: Vancomycin-resistant enterococci; test: Inhibitory effect on VRE in liquid medium; type: cell-based; details: for average absorbance (OD), Macrolactin A addition group: Average of 11 VRE strains
# Procedure: For the experiment with VRE, the strains were inoculated into a liquid medium upto a concentration of 1,000,000 cfu/mL and cultured either with (for strains to be tested) or without (for controls) Macrolactin A. […] […] After 4 hours of culture, the average absorbance of the control group was 0.76, while that of the group cultured with Macrolactin A was 0.19, showing significant difference between the two groups.
# [6] = test system: 11 VRE strains, clinically isolated; test: Minimal inhibitory concentration (MIC>90) in MH II medium; type: cell-based, vancomycin-resistant enterococci
# Procedure: as §1
compound,measurement,setting,value
CC1CCC/C=C/C=C/C(O)CC(O)C/C=C\C=C\C(O)C/C=C/C=C\C(=O)O1 (centres unmarked) [Macrolactin A],activity relative to teycoplanin (average MIC>90),[1]; 13 MRSA strains,5.3 times
same,average MIC>90,[1]; Average of the 13 MRSA strains,19.83 µg/mL
same,MIC>90,[1]; MRSA1,31.25 µg/mL
same,MIC>90,[1]; MRSA2,15.63 µg/mL
same,MIC>90,[1]; MRSA3,15.63 µg/mL
same,MIC>90,[1]; MRSA4,31.25 µg/mL
same,MIC>90,[1]; MRSA5,31.25 µg/mL
same,MIC>90,[1]; MRSA6,31.25 µg/mL
same,MIC>90,[1]; MRSA7,15.63 µg/mL
same,MIC>90,[1]; MRSA8,7.81 µg/mL
same,MIC>90,[1]; MRSA8*,15.63 µg/mL
same,MIC>90,[1]; MRSA9,15.63 µg/mL
same,MIC>90,[1]; MRSA10,15.63 µg/mL
same,MIC>90,[1]; MRSA11,15.63 µg/mL
same,MIC>90,[1]; MRSA11*,15.63 µg/mL
same,antibiotic activity against Escherichia coli,Escherichia coli,excellent antibiotic activity
same,antibiotic activity against Escherichia coli,Escherichia coli; listed as fraction 1,had antibiotic activity
same,antibiotic activity against Bacillus subtilis 168,Bacillus subtilis 168,excellent antibiotic activity
same,antibiotic activity against Bacillus subtilis 168,Bacillus subtilis 168; listed as fraction 1,had antibiotic activity
same,antibiotic activity against Vancomycin-resistant Enterococci,[2],showed antibiotic activity
same,spectrum of antibiotic activity,[3],broad spectrum of antibiotic activity
same,antibiotic activity against MRSA,[4],antibiotic activity only against MRSA
same,antibiotic activity against Streptococcus parauberis,Streptococcus parauberis,excellent antibiotic activity
same,antibiotic activity against Micrococcus luteus,Micrococcus luteus,excellent antibiotic activity
same,antibiotic activity against Saccharomyces cerevisiae,Saccharomyces cerevisiae,excellent antibiotic activity
same,antibiotic activity against Vibrio vulnificus,Vibrio vulnificus,excellent antibiotic activity
same,"average absorbance (OD), Macrolactin A addition group","[5]; culture 4 hours, 50 μg/mL",0.19 OD
same,"average absorbance (OD), Macrolactin A addition group","[5]; culture 6 hours, 50 μg/mL",0.26 OD
same,"OD, Macrolactin A addition group","[5]; VRE1, culture 4 hours, 50 μg/mL",0.216 OD
same,"OD, Macrolactin A addition group","[5]; VRE1, culture 6 hours, 50 μg/mL",0.207 OD
same,"OD, Macrolactin A addition group","[5]; VRE2, culture 4 hours, 50 μg/mL",0.279 OD
same,"OD, Macrolactin A addition group","[5]; VRE2, culture 6 hours, 50 μg/mL",0.391 OD
same,"OD, Macrolactin A addition group","[5]; VRE3, culture 4 hours, 50 μg/mL",0.240 OD
same,"OD, Macrolactin A addition group","[5]; VRE3, culture 6 hours, 50 μg/mL",0.314 OD
same,"OD, Macrolactin A addition group","[5]; VRE4, culture 4 hours, 50 μg/mL",0.166 OD
same,"OD, Macrolactin A addition group","[5]; VRE4, culture 6 hours, 50 μg/mL",0.180 OD
same,"OD, Macrolactin A addition group","[5]; VRE5, culture 4 hours, 50 μg/mL",0.176 OD
same,"OD, Macrolactin A addition group","[5]; VRE5, culture 6 hours, 50 μg/mL",0.153 OD
same,"OD, Macrolactin A addition group","[5]; VRE6, culture 4 hours, 50 μg/mL",0.171 OD
same,"OD, Macrolactin A addition group","[5]; VRE6, culture 6 hours, 50 μg/mL",0.179 OD
same,"OD, Macrolactin A addition group","[5]; VRE7, culture 4 hours, 50 μg/mL",0.173 OD
same,"OD, Macrolactin A addition group","[5]; VRE7, culture 6 hours, 50 μg/mL",0.133 OD
same,"OD, Macrolactin A addition group","[5]; VRE8, culture 4 hours, 50 μg/mL",0.228 OD
same,"OD, Macrolactin A addition group","[5]; VRE8, culture 6 hours, 50 μg/mL",0.589 OD
same,growth of VRE8 and VRE11 in liquid medium,"[5]; VRE8 and VRE11, 50 μg/mL, lower sensitivity than the other strains",notable growth retardation
same,"OD, Macrolactin A addition group","[5]; VRE11, culture 4 hours, 50 μg/mL",0.236 OD
same,"OD, Macrolactin A addition group","[5]; VRE11, culture 6 hours, 50 μg/mL",0.507 OD
same,"OD, Macrolactin A addition group","[5]; VRE14, culture 4 hours, 50 μg/mL",0.078 OD
same,"OD, Macrolactin A addition group","[5]; VRE14, culture 6 hours, 50 μg/mL",0.050 OD
same,"OD, Macrolactin A addition group","[5]; VRE15, culture 4 hours, 50 μg/mL",0.145 OD
same,"OD, Macrolactin A addition group","[5]; VRE15, culture 6 hours, 50 μg/mL",0.131 OD
same,growth of VRE strains in liquid medium,"[5]; nine out of eleven strains tested, 50 μg/mL",remarkable growth inhibition
same,activity relative to teycoplanin (average MIC>90),[6]; 11 VRE strains,4 times
same,average MIC>90,[6]; Average of the 11 VRE strains,31.25 µg/mL
same,MIC>90,[6]; VRE1,31.25 µg/mL
same,MIC>90,[6]; VRE2,31.25 µg/mL
same,MIC>90,[6]; VRE3,31.25 µg/mL
same,MIC>90,[6]; VRE4,31.25 µg/mL
same,MIC>90,[6]; VRE5,15.63 µg/mL
same,MIC>90,[6]; VRE6,31.25 µg/mL
same,MIC>90,[6]; VRE7,31.25 µg/mL
same,MIC>90,[6]; VRE9,31.25 µg/mL
same,MIC>90,[6]; VRE10,31.25 µg/mL
same,MIC>90,[6]; VRE914,62.5 µg/mL
same,MIC>90,[6]; VRE915,15.63 µg/mL
